Test results as given in patent US20220135622A1, “ANTIBACTERIAL PEPTIDES AND METHODS OF USE” (priority 2019, published 2022).
≈ marks a conversion by molar mass, not a printed value. Where two headings read alike, the source gives them in different places. Square brackets hold non-standard residues; d marks the D form. Peptide text beside a SMILES is read from it. NMeF = CN[C@@H](Cc1ccccc1)C(=O)O; NMeM = CN[C@@H](CCSC)C(=O)O; NMeA = CN[C@@H](C)C(=O)O; Dap = NC[C@H](N)C(=O)O

Key:
[1] = tested on: E. coli BW25113; assay type: cell-based, Escherichia coli
Method: (§1) Bacterial growth conditions. LB or Mueller Hinton II cation-adjusted broth (MHB II, BBL 212322) was prepared according to manufacturer's instructions and supplemented with arabinose at 0.02% for overnight growth or at indicated concentrations in the description of the figures. Bacterial cultures were grown at 37° C. When appropriate, media was supplemented with kanamycin (50 μg/mL), carbenicillin (50 μg/mL), chloramphenicol (12.5 or 25 μg/mL), hygromycin (200 μg/mL), and/or gentamicin (10 μg/mL).
(§2) Peptide sensitivity and MIC assays. Lyophilized peptides (Smartox Biotechnology, CPC Scientific. ABclonal) were solubilized to 10 mM in Tris buffer, pH 8, prior to making a 2-fold dilution series in MHBII cation adjusted broth with highest final assay concentration of 400-800 μM. Bacteria were grown to log phase and added to final OD600˜0.001. The final EDTA concentration was 0.5 mM for E. coli strains and 0.125 mM for USA300. The final volume of 10 μL/well in a 384 well black, clear bottom plate (Corning) was spun <1 min at <250×g and then incubated at 37° C. After 4 h, an equal volume (10 μL) of BacTiter-Glo™ (Promega) was added to each well and luminescence was read after 5 min on an EnVision plate reader (PerkinElmer). To measure the minimal inhibitory concentrations (MICs), bacteria from fresh overnight plates or log phase cultures were diluted with or without EDTA and peptides as described above to final OD600˜0.0002. Plates were incubated at 37° C. for 20 h before measuring OD600 with an EnVision plate reader.

[2] = tested on: K. pneumoniae; assay type: cell-based, Klebsiella pneumoniae
Method: as §1, §2

[3] = tested on: A. baumannii; assay type: cell-based, Acinetobacter baumannii
Method: as §1, §2

[4] = tested on: P. aeruginosa; assay type: cell-based, Pseudomonas aeruginosa
Method: as §1, §2

[5] = tested on: E. coli imp4213; test: MIC assay, E. coli imp4213; assay type: cell-based, Escherichia coli; conditions: Table 7
Method: as §1, §2

[6] = tested on: S. aureus USA300; test: MIC assay, S. aureus USA300; assay type: cell-based, Staphylococcus aureus; conditions: Table 7
Method: as §1, §2

Molecule | MIC E. coli imp4213 [5] | MIC S. aureus USA300 [6] | further results
Ac-RPMTSRRWLAKRGL-NH2 [compound 214] | – | – | MIC E. coli BW25113 ([1]; BW25113): 100.0 µM; MIC K. pneumoniae [2]: >400.0 µM; MIC A. baumannii [3]: >400.0 µM; MIC R. aeruginosa [4]: >400.0 µM
Ac-YPMTWRRFLEKHGL-NH2 [compound 28] | 50 µM | >800 µM | –
Ac-RPMTARRFLEKHGL-NH2 [compound 19] | 25 µM | >800 µM | –
Ac-WPMTARRFLEKHGL-NH2 [compound 18] | 200 µM | >800 µM | –
Ac-YPMTARRFLEKKGL-NH2 [compound 46] | 100 µM | >800 µM | –
Ac-RPMTWRRFLAKRGL-NH2 [compound 203] | – | – | MIC E. coli BW25113 ([1]; BW25113): 200.0 µM; MIC K. pneumoniae [2]: >400.0 µM; MIC A. baumannii [3]: 400.0 µM; MIC R. aeruginosa [4]: >400.0 µM
Ac-YPMTARHFLEKHGL-NH2 [compound 33] | 800 µM | >800 µM | –
Ac-RPMTFRRFLEKWGL-NH2 [compound 73] | – | – | MIC E. coli BW25113 ([1]; Table 8): 50 µM; MIC K. pneumoniae ([2]; Table 8): 200 µM; MIC A. baumannii ([3]; Table 8): 50 µM; MIC R. aeruginosa ([4]; Table 8): 800 µM
CSCC[C@@H](C(=O)N[C@H](C(=O)N(C)[C@@H](C)C(=O)N[C@@H](CCCNC(=N)N)C(=O)N[C@@H](CCCNC(=N)N)C(=O)N[C@@H](Cc1c[nH]c2ccccc12)C(=O)N[C@@H](CC(C)C)C(=O)N[C@@H](C)C(=O)N[C@@H](CCCCN)C(=O)N[C@@H](CCCNC(=N)N)C(=O)NCC(=O)N[C@@H](CC(C)C)C(N)=O)[C@@H](C)O)N(C)C(=O)[C@@H]1CCCN1C(=O)[C@H](CCCNC(=N)N)NC(C)=O [compound 216] (Ac-RP[NMeM]T[NMeA]RRWLAKRGL-NH2) | – | – | MIC E. coli BW25113 ([1]; BW25113): 100.0 µM (≈ 178 µg/mL); MIC K. pneumoniae [2]: >400.0 µM; MIC A. baumannii [3]: >400.0 µM; MIC R. aeruginosa [4]: >400.0 µM
CSCC[C@H](NC(=O)[C@@H]1CCCN1C(=O)[C@H](Cc1ccc(O)cc1)NC(C)=O)C(=O)N[C@@H](CN)C(=O)N[C@@H](Cc1ccccc1)C(=O)N[C@@H](CCCNC(=N)N)C(=O)N[C@@H](CCCNC(=N)N)C(=O)N[C@@H](Cc1ccccc1)C(=O)N[C@@H](CC(C)C)C(=O)N[C@@H](CCC(=O)O)C(=O)N[C@@H](CCCCN)C(=O)N[C@@H](Cc1c[nH]c2ccccc12)C(=O)NCC(=O)N[C@@H](CC(C)C)C(=O)N[C@@H](CC(C)C)C(=O)N[C@@H](CCCNC(=N)N)C(N)=O [compound 69] (Ac-YPM[Dap]FRRFLEKWGLLR-NH2) | – | – | MIC E. coli BW25113 ([1]; Table 8): 50 µM (≈ 107 µg/mL); MIC K. pneumoniae ([2]; Table 8): 100 µM (≈ 214 µg/mL); MIC A. baumannii ([3]; Table 8): 12.5 µM (≈ 26.7 µg/mL); MIC R. aeruginosa ([4]; Table 8): 200 µM (≈ 428 µg/mL)
Ac-YPMTARRFLSKHGL-NH2 [compound 37] | 400 µM | >800 µM | –
Ac-YPMTARRFLEKRGL-NH2 [compound 45] | 100 µM | >800 µM | –
Ac-YPMTARRFLAKHGL-NH2 [compound 36] | 100 µM | >800 µM | –
Ac-YPMTYRRFLEKHGL-NH2 [compound 27] | 400 µM | >800 µM | –
Ac-YPATARRFLEKHGL-NH2 [compound 21] | 800 µM | >800 µM | –
Ac-YPFTARRFLEKHGL-NH2 [compound 23] | 400 µM | >800 µM | –
Ac-YPLTARRFLEKHGL-NH2 [compound 22] | 400 µM | >800 µM | –
Ac-YPMTARRFWEKHGL-NH2 [compound 35] | 400 µM | >800 µM | –
Ac-KPMTARRFLEKWGLLR-NH2 [compound 61] | 12.5 µM | – | MIC A. baumannii ([3]; Table 8): 40 µM; MIC R. aeruginosa ([4]; Table 8): 400 µM
Ac-YPMTARRFLRKHGL-NH2 [compound 38] | 100 µM | >800 µM | –
Ac-YPMTARRFLEKYGL-NH2 [compound 43] | 100 µM | >800 µM | –
Ac-YPMTARRWLEKHGL-NH2 [compound 34] | 25 µM | >800 µM | –

Molecule | MIC E. coli imp4213 [5] | MIC S. aureus USA300 [6] | further results
Ac-YPMSARRFLEKHGL-NH2 [compound 26] | 800 µM | >800 µM | –
Ac-FPMTARRFLEKHGL-NH2 [compound 17] | 200 µM | >800 µM | –
Ac-YPMSARRFLAKWGLLR-NH2 [compound 15] | <12.5 µM | 800 µM | –
Ac-YPMTARRFLEHHGL-NH2 [compound 40] | 400 µM | >800 µM | –
Ac-YPMTARRFLEAHGL-NH2 [compound 39] | 200 µM | >800 µM | –
Ac-YPMAARRFLEKHGL-NH2 [compound 25] | 800 µM | >800 µM | –
Ac-YPMTRRRFLEKHGL-NH2 [compound 29] | 800 µM | >800 µM | –
Ac-YPMTARRFLEKWGLLR-NH2 [compound 14] | 25 µM | 800 µM | –
Ac-YPMTARKFLEKHGL-NH2 [compound 32] | 100 µM | >800 µM | –
Ac-YPMTARRFLERHGL-NH2 [compound 41] | 100 µM | >800 µM | –
Ac-YPMTAKRFLEKHGL-NH2 [compound 30] | 800 µM | >800 µM | –
Ac-YPMTARAFLEKHGL-NH2 [compound 31] | 800 µM | >800 µM | –
Ac-YAMTARRFLEKHGL-NH2 [compound 20] | 400 µM | >800 µM | –
Ac-YPWTARRFLEKHGL-NH2 [compound 24] | 400 µM | >800 µM | –
CSCC[C@H](NC(=O)[C@@H]1CCCN1C(=O)[C@H](Cc1ccc(O)cc1)NC(C)=O)C(=O)N[C@@H](Cc1ccccc1)C(=O)N[C@@H](CN)C(=O)N[C@@H](CCCNC(=N)N)C(=O)N[C@@H](CCCNC(=N)N)C(=O)N[C@@H](Cc1ccccc1)C(=O)N[C@@H](CC(C)C)C(=O)N[C@@H](CCC(=O)O)C(=O)N[C@@H](CCCCN)C(=O)N[C@@H](Cc1c[nH]c2ccccc12)C(=O)NCC(=O)N[C@@H](CC(C)C)C(=O)N[C@@H](CC(C)C)C(=O)N[C@@H](CCCNC(=N)N)C(N)=O [compound 104] (Ac-YPMF[Dap]RRFLEKWGLLR-NH2) | – | – | MIC E. coli BW25113 ([1]; Table 8): 200 µM (≈ 428 µg/mL)
Ac-YPMTARRFLEKAGL-NH2 [compound 42] | 800 µM | >800 µM | –
Ac-YPMTARRFLEKHGW-NH2 [compound 47] | 200 µM | >800 µM | –
CC(=O)N[C@@H](Cc1ccc(O)cc1)C(=O)N1CCC[C@H]1C(=O)N(C)[C@@H](Cc1ccccc1)C(=O)N[C@H](C(=O)N(C)[C@@H](C)C(=O)N[C@@H](CCCNC(=N)N)C(=O)N[C@@H](CCCNC(=N)N)C(=O)N[C@@H](Cc1ccccc1)C(=O)N[C@@H](CC(C)C)C(=O)N[C@@H](CCC(=O)O)C(=O)N[C@@H](CCCCN)C(=O)N[C@@H](Cc1c[nH]c2ccccc12)C(=O)NCC(=O)N[C@@H](CC(C)C)C(=O)N[C@@H](CC(C)C)C(=O)N[C@@H](CCCNC(=N)N)C(N)=O)[C@@H](C)O [compound 99] (Ac-YP[NMeF]T[NMeA]RRFLEKWGLLR-NH2) | – | – | MIC E. coli BW25113 ([1]; Table 8): 200.0 µM (≈ 425 µg/mL)
CSCC[C@H](NC(=O)[C@H](CN)NC(=O)[C@@H]1CCCN1C(=O)[C@H](Cc1ccc(O)cc1)NC(C)=O)C(=O)N[C@@H](Cc1ccccc1)C(=O)N[C@@H](CCCNC(=N)N)C(=O)N[C@@H](CCCNC(=N)N)C(=O)N[C@@H](Cc1ccccc1)C(=O)N[C@@H](CC(C)C)C(=O)N[C@@H](CCC(=O)O)C(=O)N[C@@H](CCCCN)C(=O)N[C@@H](Cc1c[nH]c2ccccc12)C(=O)NCC(=O)N[C@@H](CC(C)C)C(=O)N[C@@H](CC(C)C)C(=O)N[C@@H](CCCNC(=N)N)C(N)=O [compound 103] (Ac-YP[Dap]MFRRFLEKWGLLR-NH2) | – | – | MIC E. coli BW25113 ([1]; BW25113): <12.5 µM
Ac-APMTARRFLEKHGL-NH2 [compound 16] | 100 µM | >800 µM | –
CSCC[C@@H](C(=O)N[C@@H](CN)C(=O)N(C)[C@@H](Cc1ccccc1)C(=O)N[C@@H](CCCNC(=N)N)C(=O)N[C@@H](CCCNC(=N)N)C(=O)N[C@@H](Cc1ccccc1)C(=O)N[C@@H](CC(C)C)C(=O)N[C@@H](CCC(=O)O)C(=O)N[C@@H](CCCCN)C(=O)N[C@@H](Cc1c[nH]c2ccccc12)C(=O)NCC(=O)N[C@@H](CC(C)C)C(=O)N[C@@H](CC(C)C)C(=O)N[C@@H](CCCNC(=N)N)C(N)=O)N(C)C(=O)[C@@H]1CCCN1C(=O)[C@H](Cc1ccc(O)cc1)NC(C)=O [compound 100] (Ac-YP[NMeM][Dap][NMeF]RRFLEKWGLLR-NH2) | – | – | MIC E. coli BW25113 ([1]; Table 8): 25.0 µM (≈ 54.2 µg/mL)
